Data published in US20260223850A1, “SUBSTITUTED PYRROLIDONE COMPOUND, PREPARATION METHOD THEREFOR, COMPOSITION AND APPLICATION THEREOF” (QINGDAO KINGAGROOT CHEMICAL COMPOUND CO., LTD., priority 2023, published 2026).

Columns and labels:
Assay type in all cases: in vivo
[1] = test system: Echinochloa crusgalli; test: Seedling stage sealing experiment for water-seeding; details: 120 g a.i./ha, 15 days, fresh weight control rate
[2] = test system: Echinochloa phyllopogon; test: as above; details: 120 g a.i./ha, 15 days, fresh weight control rate
Method in brief: (§1)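 Water-seeding seedling stage test: broadcast seeds, cover with soil, keep bowls moist in a water box; spray compound (acetone, diluted in water) at 120, 60, 30, 15 g a.i./ha; culture 15 d in greenhouse; grade 0–9 by fresh-weight growth control; mean of 3.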

[3] = test system: Leptochloa chinensis; test: as above; details: 120 g a.i./ha, 15 days, fresh weight control rate
Text: (1) Seedling Stage Sealing Experiment for Water-Seeding:
The activity level criteria for plant damage (i.e., growth control rate) are as follows: • Level 9: completely dead; • Level 8: growth control rate greater than or equal to 90% and less than 100%; • Level 7: growth control rate greater than or equal to 80% and less than 90%; • Level 6: growth control rate greater than or equal to 70% and less than 80%; • Level 5: growth control rate greater than or equal to 50% and less than 70%; • Level 4: growth control rate greater than or equal to 30% and less than 50%; • Level 3: growth control rate greater than or equal to 20% and less than 30%; • Level 2: growth control rate greater than or equal to 10% and less than 20%; • Level 1: growth control rate less than 10%; • Level 0: no effect.
The above growth control rates are fresh weight control rates.
Echinochloa phyllopogon, Digitaria sanguinalis, Huaidao (rice cultivar), etc. were broadcasted on the surface of nutrition bowls filled with soil and fully covered by soil. The foregoing well-prepared nutrition bowls were then placed in a cultivation box with water filled to a suitable height to keep the soil in the nutrition bowls moist. A test compound of the present invention was individually dissolved with acetone, then diluted into solution of a certain concentration using a certain amount of water, and sprayed using a spray tower. The plants were placed on a greenhouse seedbed and cultured for 15 days, and the experimental results were then collected. The compound was applied at 120, 60, 30 and 15 g a.i./ha in triplicate, and the results were averaged.

[4] = test system: Huaidao (rice cultivar); test: Seedling stage sealing experiment for water-seeding (crop safety); details: 120 g a.i./ha, 15 days, fresh weight control rate; for Huaidao (rice cultivar) plant damage level (growth control rate): spray, seedling stage sealing for water-seeding
Method in brief: as §1

[5] = spray, seedling stage sealing for water-seeding

Structure (SMILES)	Echinochloa crusgalli activity level (growth control rate) ([1]; seedling stage sealing)	Echinochloa phyllopogon activity level (growth control rate) ([2]; seedling stage sealing)	Leptochloa chinensis activity level (growth control rate) [3]	Echinochloa crusgalli activity level (growth control rate) [1, 5]	Echinochloa phyllopogon activity level (growth control rate) [2, 5]	Huaidao (rice cultivar) plant damage level (growth control rate) [4]	Huaidao (rice cultivar) plant damage level ([4]; seedling stage sealing)
CC(C)c1cccc([C@H]2CN(C)C(=O)[C@@H]2C(=O)Nc2cnn(C)c2Cl)c1 [20′]	9	8 (Level 8: growth control rate greater than or equal to 90% and less than 100%)	9	–	–	–	–
COc1cccc([C@H]2CN(C)C(=O)[C@@H]2C(=O)Nc2cnn(C)c2Cl)c1 [28′]	8 (Level 8: growth control rate greater than or equal to 90% and less than 100%)	6 (Level 6: growth control rate greater than or equal to 70% and less than 80%)	9	–	–	–	–
CN1C[C@H](c2cccc(OC(F)(F)F)c2)[C@@H](C(=O)Nc2cnn(C)c2Cl)C1=O [33′]	9	8 (Level 8: growth control rate greater than or equal to 90% and less than 100%)	9	–	–	–	–
CN1C[C@H](c2cccc(Oc3ccccc3)c2)[C@@H](C(=O)Nc2cnn(C)c2Cl)C1=O [50′]	–	–	6 (Level 6: growth control rate greater than or equal to 70% and less than 80%)	–	–	–	–
COc1cc([C@H]2CN(C)C(=O)[C@@H]2C(=O)Nc2cnn(C)c2Cl)cc(C(F)(F)F)c1 [75′]	9	6 (Level 6: growth control rate greater than or equal to 70% and less than 80%)	9	–	–	–	–
CN1C[C@H](c2cccc(C(F)(F)F)c2)[C@@H](C(=O)Nc2cnn(CCF)c2Cl)C1=O [98′]	9	9	9	–	–	–	–
CN1C[C@H](c2cccc(C(F)(F)F)c2)[C@@H](C(=O)Nc2cnn(C)c2Br)C1=O [120′]	9	8 (Level 8: growth control rate greater than or equal to 90% and less than 100%)	9	–	–	–	–
CN1C[C@H](c2cccc(I)c2)[C@@H](C(=O)Nc2cnn(C)c2Cl)C1=O [125′]	9	9	9	–	–	–	–
CN1C[C@H](c2cccc(Br)c2)[C@@H](C(=O)Nc2cnn(C)c2Cl)C1=O [126′]	9	9	9	–	–	–	–
Cc1cccc([C@H]2CN(C)C(=O)[C@@H]2C(=O)Nc2cnn(C3CC3)c2Cl)c1 [128′]	9	8 (Level 8: growth control rate greater than or equal to 90% and less than 100%)	9	–	–	–	–
Cc1cccc([C@H]2CN(C)C(=O)[C@@H]2C(=O)Nc2cnn(CC(F)(F)F)c2Cl)c1 [129′]	9	8 (Level 8: growth control rate greater than or equal to 90% and less than 100%)	9	–	–	–	–
Cc1cccc([C@H]2CN(C)C(=O)[C@@H]2C(=O)Nc2cnn(C(C)C)c2Cl)c1 [130′]	9	9	9	–	–	–	–
C=Cc1cccc([C@H]2CN(C)C(=O)[C@@H]2C(=O)Nc2cnn(C)c2Cl)c1 [149′]	5 (Level 5: growth control rate greater than or equal to 50% and less than 70%)	–	5 (Level 5: growth control rate greater than or equal to 50% and less than 70%)	–	–	–	–
CN1C[C@H](c2cccc(C(F)(F)F)c2)[C@@H](C(=O)Nc2cnn(C(C)(C)C)c2Cl)C1=O [157′]	5 (Level 5: growth control rate greater than or equal to 50% and less than 70%)	–	7 (Level 7: growth control rate greater than or equal to 80% and less than 90%)	–	–	–	–
CN1C[C@H](c2cccc(C(F)(F)F)c2)[C@@H](C(=O)Nc2cnn(CC3CC3)c2Cl)C1=O [165′]	–	–	6 (Level 6: growth control rate greater than or equal to 70% and less than 80%)	–	–	–	–
COc1cc(OC)cc([C@H]2CN(C)C(=O)[C@@H]2C(=O)Nc2cnn(C)c2C2CC2)c1 [301′]	–	–	6 (Level 6: growth control rate greater than or equal to 70% and less than 80%)	–	–	–	–
COc1cc([C@H]2CN(C)C(=O)[C@@H]2C(=O)Nc2cnn(C)c2Cl)ccc1C(F)(F)F [316′]	6 (Level 6: growth control rate greater than or equal to 70% and less than 80%)	–	6 (Level 6: growth control rate greater than or equal to 70% and less than 80%)	–	–	–	–
CN1C[C@H](c2cc(C(F)(F)F)cc(C(F)(F)F)c2)[C@@H](C(=O)Nc2cnn(C)c2C2CC2)C1=O [510′]	–	–	–	9	9	2 (Level 2: growth control rate greater than or equal to 10% and less than 20%)	–
CN1C[C@H](c2cc(Br)cc(C(F)F)c2)[C@@H](C(=O)Nc2cnn(C)c2Cl)C1=O [511′]	–	–	–	9	6 (Level 6: growth control rate greater than or equal to 70% and less than 80%)	0	–
CN1C[C@H](c2cc(Br)cc(C(F)F)c2)[C@@H](C(=O)Nc2cnn(C(F)F)c2Cl)C1=O [512′]	–	–	–	9	7 (Level 7: growth control rate greater than or equal to 80% and less than 90%)	0	–
CN1C[C@H](c2cc(Br)cc(C(F)(F)F)c2)[C@@H](C(=O)Nc2cnn(C)c2C2CC2)C1=O [514′]	–	–	–	9	6 (Level 6: growth control rate greater than or equal to 70% and less than 80%)	0	–
Cc1cc([C@H]2CN(C)C(=O)[C@@H]2C(=O)Nc2cnn(C)c2Br)cc(C)c1C [516′]	–	–	–	9	9	0	–
Cc1cc([C@H]2CN(C)C(=O)[C@@H]2C(=O)Nc2cnn(C)c2C#N)cc(C)c1C [518′]	–	–	–	9	9	0	–
CN1C[C@H](c2cc(Cl)cc(Cl)c2)[C@@H](C(=O)Nc2cnn(C)c2Cl)C1=O [519′]	–	–	–	9	9	1 (Level 1: growth control rate less than 10%)	–
Cc1csc([C@H]2CN(C)C(=O)[C@@H]2C(=O)Nc2cnn(C)c2Cl)c1 [520′]	–	–	–	9	7 (Level 7: growth control rate greater than or equal to 80% and less than 90%)	0	–
CN1CC(c2cccc(OCC3CC3)c2)C(C(=O)Nc2cnn(C)c2Cl)C1=O (stereo not drawn) [Compound 39]	6 (Level 6: growth control rate greater than or equal to 70% and less than 80%)	–	9	–	–	–	–
CN1CC(c2cccc(OC3CCCC3)c2)C(C(=O)Nc2cnn(C)c2Cl)C1=O (stereo not drawn) [Compound 41]	5 (Level 5: growth control rate greater than or equal to 50% and less than 70%)	–	6 (Level 6: growth control rate greater than or equal to 70% and less than 80%)	–	–	–	–
CN1CC(c2cccc(C(F)(F)F)c2)C(C(=O)Nc2c(Cl)nn(C)c2Cl)C1=O (stereo not drawn) [Compound 94]	5 (Level 5: growth control rate greater than or equal to 50% and less than 70%)	5 (Level 5: growth control rate greater than or equal to 50% and less than 70%)	–	–	–	–	0
Cn1ncc(NC(=O)C2C(=O)NCC2c2cccc(C(F)(F)F)c2)c1Cl (stereo not drawn) [Compound 100]	6 (Level 6: growth control rate greater than or equal to 70% and less than 80%)	–	6 (Level 6: growth control rate greater than or equal to 70% and less than 80%)	–	–	–	–
Cc1cc(C2CN(C)C(=O)C2C(=O)Nc2cnn(C)c2C(F)(F)F)cc(C)c1C (stereo not drawn) [Compound 517]	–	–	–	9	9	0	–
